Structures can show the parent of a compound that is named as a salt.
What was measured:
SU-DHL-2 = test: Antiproliferative effect in lymphoma cell line SU-DHL-2 (CellTiter-Glo); format: cell-based, human; settings: SU-DHL-2, 4 days
Description: Experimental purpose: The experiment aims to evaluate the inhibitory effects of the test compounds on cell proliferation in the lymphoma cell line SU-DHL-2.
The tumor cell lines were cultured in a 37° C., 5% CO2 incubator under the above culture conditions. Regular passage, and cells in logarithmic growth phase were taken for plating.
• (1) Cells were stained with trypan blue and viable cells were counted. • (2) The cell concentration was adjusted to an appropriate concentration.
• (3) 50 μL of cell suspension per well was added to the culture plate as shown in the figure above. • (4) The culture plate was cultured overnight in a 37° C., 5% CO2 incubator with 100% relative humidity.
Compounds were added using the Echo655 instrument. The volume of compound added was 50 nL, with a final DMSO concentration of 0.1%. The culture plate was centrifuged at 1000 rpm for 1 minute, then incubated for 4 days in an incubator at 37° C., 5% CO2, and with 100% relative humidity.
The following steps were performed according to the instructions of Promega CellTiter-Glo luminescent cell viability assay kit (Promega-G7573). • (1) CellTiter-Glo buffer was melted and brought to room temperature. • (2) CellTiter-Glo substrate was brought to room temperature. • (3) CellTiter-Glo working solution was prepared by adding CellTiter-Glo buffer to a vial of CellTiter-Glo substrate to dissolve the substrate; • (4) The mixture was slowly vortexed and shaken to be fully dissolved. • (5) The cell culture plate was taken out and left for 30 minutes to equilibrate to room temperature. • (6) 25 μL of CellTiter-Glo working solution was added per well (equal to half the volume of cell culture medium per well). The cell plate was wrapped in aluminum foil to be protected from light. • (7) The culture plate was shaken on an orbital shaker for 2 minutes to induce cell lysis. • (8) The culture plate was left at room temperature for 10 minutes to stabilize the luminescent signal. • (9) The luminescent signal was detected on a 2104 EnVision plate reader.
The inhibition rate (IR) of the test compound was calculated using the following formula: IR (%)=(1−(RLU compound/RLU blank control)/(RLU vehicle control−RLU blank control)×100%. The inhibition rates of compounds at different concentrations were calculated in Excel, and then GraphPad Prism software was used to plot inhibition curves and calculate relevant parameters, including minimum inhibition rate, maximum inhibition rate, and IC50.

IRAK4 = molecular target: T1, IRAK4 (Homo sapiens, UniProt Q9NWZ3); test: Target protein degradation in K562 IRAK4-HiBiT cells (Nano-Glo HiBiT); format: cell-based; settings: 16 to 18 hours
T1 construct: expressed in transfected cells; host or cells: K562 IRAK4-HiBiT cells
T1 sequence (Q9NWZ3 1-460): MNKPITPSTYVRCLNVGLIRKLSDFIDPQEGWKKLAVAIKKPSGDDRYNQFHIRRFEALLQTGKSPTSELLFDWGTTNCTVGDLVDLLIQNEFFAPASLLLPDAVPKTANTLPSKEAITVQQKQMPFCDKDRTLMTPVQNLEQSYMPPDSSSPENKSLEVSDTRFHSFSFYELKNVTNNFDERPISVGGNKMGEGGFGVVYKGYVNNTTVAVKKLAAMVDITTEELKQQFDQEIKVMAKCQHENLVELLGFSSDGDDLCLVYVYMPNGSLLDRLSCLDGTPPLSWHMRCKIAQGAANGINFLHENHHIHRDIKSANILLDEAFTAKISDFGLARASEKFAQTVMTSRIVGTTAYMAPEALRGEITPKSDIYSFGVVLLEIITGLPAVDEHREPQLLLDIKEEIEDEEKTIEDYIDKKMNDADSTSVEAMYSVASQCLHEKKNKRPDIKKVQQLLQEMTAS
Description: Experimental objective: The experiment aims to evaluate the degradation effect of the test compounds on the target protein IRAK4 in K562 IRAK4-HiBiT cells.
• Cells: K562 IRAK4-HiBiT cells • Culture medium: RPMI 1640+10% fetal bovine serum+2 mM glutamine+1 mM sodium pyruvate+penicillin/streptomycin. • Positive control: 1000 nM; negative control: 0.1% DMSO.
• (1). The powder of the compound to be tested was dissolved in DMSO to a storage concentration of 10 mM. A total of 9 μL of the 10 mM of the compound to be tested was manually pipetted into the 1st and 13th columns of the LDV plate using a pipettor; • (2). A volume of 6 μL of DMSO was added to columns 2-12 and 14-24 using a Multidrop Combi; • (3). A 3-fold dilution of the test compounds (3 μL+6 μL) was performed using Bravo, for columns 1-11 and 13-23; • (4). According to the plate layout, 25 nL of compound solution (columns 1-24 of the LDV plate) was transferred to the experimental plate using Echo; • (5) 25 nL of the 1 mM positive control solution was transferred to the assay plate as a 100% degradation control (i.e. LC, HPE), and 25 nL of DMSO was transferred to the assay plate as a 0% control (i.e. HC, ZPE).
• (1) The culture medium was discarded, and the cells were washed once with DPBS, digested with trypsin, counted, and prepared into a cell suspension of […]. • (2) Using the MultiDrop Combi at a medium speed, 25 μL/well of the cell suspension was added to the experimental plate containing the test compounds; • (3) The experimental plate containing cells was returned to the incubator and cultured for 16 to 18 hours at 37° C. and 5% CO2.
• (1). Using the MultiDrop Combi at a high speed, 25 μL/well of the assay reagent (NanoGlo lytic solution+substrate+LgBit protein) was added to the assay plate, followed by shaking for 10 minutes; • (2) The plate was centrifuged at 2000 rpm for 1 minute to remove any bubbles; • (3) Readings were obtained by using an Envision, US Luminescence reader.
To calculate the degradation rate (DR) of the test compounds, the following formula is used: IR (%)=(RLU vehicle control−RLU compound)/(RLU vehicle control−RLU positive control)×100%. The solvent control refers to the blank control. The degradation rates of compounds at different concentrations were calculated in Excel, and then XLFit software was used to plot inhibition curves and calculate relevant parameters, including minimum degradation rate, maximum degradation rate, and DC50.

IKZF1 = molecular target: T2, IKZF1 (Homo sapiens, UniProt Q13422+Q96SW2); test: In Cell Western of IKZF1 protein expression level in MM.1S cells; format: cell-based; settings: IKZF1, MM.1S cells, 24 hours
T2 construct: host or cells: MM.1S cells
Description: Experimental objective: The experiment aims to assess the degradation effect of the test compounds on IKZF1 and 1KZF3 proteins in MM.1S cells by evaluating the impact of the test compounds on the expression levels of IKZF1 and IZKZF3 proteins in MM.1S cells.
• Cell lines: MMN.1 S cell (sourced from ATCC; Cat. No CRL-2974) • Negative control: 0.100 DMSO.
• 1) Log phase MM.1 S cells were plated in a 96-well plate at 1.2×10^5 cells per well and cultured overnight; • 2) The next day, compounds were added with a starting concentration of 300 nM, diluted threefold across three replicate wells for 10 concentration gradients (including DMSO), and the cells were incubated for 24 hours in an incubator; • 3) The cells were centrifuged, and the supernatant was carefully removed. 150 μL of 4% paraformaldehyde fixative was added along the wall of the wells, avoiding contact with the bottom cells, and the cells were incubated at room temperature for 20 minutes; • 4) Lysis buffer was prepared by mixing 0.5 mL of 10% Triton X-100 with 49.5 mL of PBS until homogenous; • 5) 200 μL of lysis buffer was added along the well walls, again avoiding the bottom cells, and incubated on a shaker at room temperature for 5 minutes; • 6) The wells were washed four times; • 7) 150 μL of Licor […] Blocking Buffer was added along the well walls, avoiding the bottom cells, and the cells were incubated on a shaker at room temperature for 1.5 hours; • 8) Ikaros (D6N9Y) Rabbit mAb, Aiolos (D1C1E) Rabbit mAb and GAPDH mouse mAb (proteintech, 60004-1-Ig) were diluted at a 1:100 ratio using antibody dilution buffer; • 9) 50 μL of mixed antibody was added to each well with three replicate wells, and the cells were incubated overnight on a shaker at 4° C.; • 10) PBST (PBS with 0.1% Tween 20) was prepared; • 11) The primary antibodies were removed, and 200 μL of PBST was added along the well walls, avoiding the bottom cells, and the cells were incubated on a shaker at room temperature for 5 minutes; • 12) The wells were washed four times; • 13) Secondary antibody dilution buffer was prepared by adding Tween 20 to Licor […] Blocking Buffer to a final concentration of 0.2%; • 14) Fluorescent secondary antibodies were diluted in the dark at a 1:800 ratio. To 400 μL of secondary antibody dilution solution, 0.5 μL of each IRDye 800CW and IRDye 680CW (corresponding to the primary antibodies) was added. • 15) 50 μL of the diluted fluorescent secondary antibodies was added to each well and the cells were incubated on a shaker at room temperature in the dark for 60 minutes; • 16) The secondary antibodies were removed, and 200 μL of PBST was added along the well walls, avoiding the bottom cells, and the cells were incubated on a shaker at room temperature in the dark for 5 minutes; • 17) The wells were washed four times; immediately after washing, the Odyssey Gel Imaging System was used for detection at dual wavelengths of 700 nm and 800 nm.
Using GraphPad Prism 6 software, inhibition rate data was entered to fit the curve and calculate the DC50 value.

T2 sequence (Q13422 whole entry): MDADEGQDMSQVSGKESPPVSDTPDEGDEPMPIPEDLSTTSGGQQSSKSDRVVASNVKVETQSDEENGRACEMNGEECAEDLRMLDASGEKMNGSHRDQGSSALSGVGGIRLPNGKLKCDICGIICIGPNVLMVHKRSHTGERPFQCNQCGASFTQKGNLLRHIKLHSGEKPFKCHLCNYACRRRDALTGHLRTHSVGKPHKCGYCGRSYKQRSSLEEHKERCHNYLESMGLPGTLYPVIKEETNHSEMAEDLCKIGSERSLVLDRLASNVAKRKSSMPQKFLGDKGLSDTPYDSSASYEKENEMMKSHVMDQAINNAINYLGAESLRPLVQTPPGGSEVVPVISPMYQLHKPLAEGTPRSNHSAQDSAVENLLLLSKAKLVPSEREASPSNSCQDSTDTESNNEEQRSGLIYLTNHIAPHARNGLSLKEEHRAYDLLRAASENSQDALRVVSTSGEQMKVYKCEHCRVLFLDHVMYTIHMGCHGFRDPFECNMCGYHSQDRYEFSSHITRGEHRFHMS
T2 sequence (Q96SW2 whole entry): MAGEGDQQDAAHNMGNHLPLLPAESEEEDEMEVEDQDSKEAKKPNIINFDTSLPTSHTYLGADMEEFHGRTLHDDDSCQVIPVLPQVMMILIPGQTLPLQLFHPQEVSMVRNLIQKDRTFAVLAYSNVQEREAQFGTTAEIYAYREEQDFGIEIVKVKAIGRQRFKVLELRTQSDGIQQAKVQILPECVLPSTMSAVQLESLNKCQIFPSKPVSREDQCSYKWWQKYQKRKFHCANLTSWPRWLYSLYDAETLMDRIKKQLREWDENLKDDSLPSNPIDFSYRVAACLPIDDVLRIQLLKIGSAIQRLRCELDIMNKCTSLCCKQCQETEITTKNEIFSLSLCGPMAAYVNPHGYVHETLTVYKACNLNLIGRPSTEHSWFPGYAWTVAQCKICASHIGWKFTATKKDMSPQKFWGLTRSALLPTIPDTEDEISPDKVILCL
T2 sequence (Q16531 whole entry partner): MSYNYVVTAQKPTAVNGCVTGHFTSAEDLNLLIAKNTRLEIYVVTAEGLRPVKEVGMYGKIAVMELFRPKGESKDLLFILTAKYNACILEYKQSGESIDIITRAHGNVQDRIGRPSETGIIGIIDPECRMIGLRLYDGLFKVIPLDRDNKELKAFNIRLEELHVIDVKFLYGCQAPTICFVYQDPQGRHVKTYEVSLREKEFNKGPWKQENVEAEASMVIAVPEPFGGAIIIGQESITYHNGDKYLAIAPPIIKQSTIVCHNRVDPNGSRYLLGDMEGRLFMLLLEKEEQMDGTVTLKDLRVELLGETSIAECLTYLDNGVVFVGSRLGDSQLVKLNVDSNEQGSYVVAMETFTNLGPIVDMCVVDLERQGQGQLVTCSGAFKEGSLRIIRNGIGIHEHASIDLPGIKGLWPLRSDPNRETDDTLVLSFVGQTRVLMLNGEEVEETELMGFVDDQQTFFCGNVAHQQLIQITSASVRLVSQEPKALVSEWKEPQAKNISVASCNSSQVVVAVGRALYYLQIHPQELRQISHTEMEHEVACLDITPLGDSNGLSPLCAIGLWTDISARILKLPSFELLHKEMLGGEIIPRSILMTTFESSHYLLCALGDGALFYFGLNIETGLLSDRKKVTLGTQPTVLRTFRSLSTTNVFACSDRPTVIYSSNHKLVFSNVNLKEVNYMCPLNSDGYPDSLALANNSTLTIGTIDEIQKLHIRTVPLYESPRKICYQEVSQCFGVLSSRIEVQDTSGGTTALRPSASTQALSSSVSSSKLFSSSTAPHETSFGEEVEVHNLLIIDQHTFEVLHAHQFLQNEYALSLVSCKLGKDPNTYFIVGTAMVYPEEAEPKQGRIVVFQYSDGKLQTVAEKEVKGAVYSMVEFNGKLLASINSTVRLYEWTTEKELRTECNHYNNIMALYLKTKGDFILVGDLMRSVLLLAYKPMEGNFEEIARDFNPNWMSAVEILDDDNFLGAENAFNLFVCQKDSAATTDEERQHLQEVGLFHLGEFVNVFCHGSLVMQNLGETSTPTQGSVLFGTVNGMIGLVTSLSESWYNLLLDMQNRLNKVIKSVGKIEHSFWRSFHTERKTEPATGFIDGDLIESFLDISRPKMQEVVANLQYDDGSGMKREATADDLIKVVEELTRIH

Compound | IC50 (SU-DHL-2; Homo sapiens, 96 h) [nM] | Maximum inhibition rate (SU-DHL-2) [%] | DC50 (IRAK4) [nM] | Dmax (IRAK4; read-out: Maximum degradation rate) [%] | DC50 (IKZF1) [nM] | Dmax (IKZF1; MM1.S, read-out: Maximum degradation rate Dmax) [%]
CN(CCCOCCCc1ccc2occ(C3CCC(=O)NC3=O)c2c1)C[C@H]1CC[C@H](n2cc(NC(=O)c3coc(-c4ccnc(NCC5CC5)c4)n3)c(C(F)F)n2)CC1 (stereo partly drawn) [Hydrochloride of WX004] | 64.5 | 99.05 |  |  |  | 
CN(CCCOCCCc1ccc2c(ccc3onc(C4CCC(=O)NC4=O)c32)c1)C[C@H]1CC[C@H](n2cc(NC(=O)c3coc(-c4ccnc(NCC5CC5)c4)n3)c(C(F)F)n2)CC1 (stereo partly drawn) [Hydrochloride of WX016] |  |  | 70.7 | 93.1 | 6.02 | 81.6

From patent publication US20240400547A1, “2,6-PIPERIDINEDIONE COMPOUND AND APPLICATION THEREOF” (MEDSHINE DISCOVERY INC., priority 2021, published 2024)
